This passage reports MIC results from US5373000A, “7Beta-(thiadiazolyl)-2-iminoacetamido-3cephem compounds” (Eisai Co., Ltd., priority 1985, dated 1994).

Test systems include Escher. coli NIHJ; Staph. aureus 209-P; Morg. morganii EP-14; Pseud. aeruginosa EP-01; Kleb Pneumoniae EK-6.
Common to all, as to test: Antibacterial activities, MIC
What all share (assay type): cell-based

The next experiment relates to Ser. marcescens ES-75. The conditions noted are these: Serratia marcescens, ES75, read-out: MIC.
The mark [1] stands for this setting: Escherichia coli, read-out: MIC.
[2] abbreviates: Staphylococcus aureus, read-out: MIC.
The mark [3] stands for this setting: Morganella morganii, EP14, Morg. morganii EP-14, read-out: MIC.
[4] abbreviates: Pseudomonas aeruginosa, EP01, Pseud. aeruginosa EP-01, read-out: MIC.

One may read the MIC as the smallest concentration in the dilution series that meets the test's criterion for growth inhibition.

The structures appear in SMILES notation. Converted amounts (≈) assume the structure as drawn. Read-outs that look alike come from different tables or passages of the source. Some results are limits rather than exact numbers.

In the case of `CO/N=C(\C(=O)N[C@@H]1C(=O)N2C(C(=O)[O-])=C(/C=C/C[n+]3ccc4n3CCOC4)CS[C@H]12)c1nsc(N)n1` [Example 14, 7β-[2-(5-Amino-1,2,4-thiadiazol-3-yl)-(Z)-2-methoxyiminoacetamido]-3-[(E)-(1-morpholino[4,3-b]pyrazolio)-1-propen-1-yl]-3-cephem-4-carboxylate], the MIC was ≤ 0.025 µg/mL with Escher. coli NIHJ (setting [1]); 0.2 µg/mL (≈ 0.366 µM) in the experiment with Staph. aureus 209-P (setting [2]); 0.05 µg/mL (≈ 0.0915 µM) in the experiment with Morg. morganii EP-14 (setting [3]); 0.05 µg/mL (≈ 0.0915 µM) in the experiment with Ser. marcescens ES-75; 1.56 µg/mL (≈ 2.85 µM) with Pseud. aeruginosa EP-01 (setting [4]); ≤ 0.025 µg/mL in the experiment with Kleb Pneumoniae EK-6 (read-out: MIC).
As to `CCO/N=C(\C(=O)N[C@@H]1C(=O)N2C(C(=O)[O-])=C(/C=C/C[N+](C)(C)CC(N)=O)CS[C@H]12)c1nsc(N)n1` [Example 15, 7β-[2-(5-Amino-1,2,4-thiadiazol-3-yl)-(Z)-2-ethoxyiminoacetamido]-3-[(E)-3-(carbamoylmethyldimethylammonio)-1-propen-1-yl]-3-cephem-4-carboxylate], the minimum inhibitory concentration (MIC) stood at 0.1 µg/mL (≈ 0.186 µM) in the experiment on Escher. coli NIHJ (setting [1]); 0.2 µg/mL (≈ 0.371 µM) with Staph. aureus 209-P (setting [2]); 0.05 µg/mL (≈ 0.0928 µM) with Morg. morganii EP-14 (setting [3]); 0.2 µg/mL (≈ 0.371 µM) with Ser. marcescens ES-75; 1.56 µg/mL (≈ 2.9 µM) in the experiment with Pseud. aeruginosa EP-01 (setting [4]); 0.05 µg/mL (≈ 0.0928 µM) with Kleb Pneumoniae EK-6 (read-out: MIC).
Consider `CO/N=C(\C(=O)N[C@@H]1C(=O)N2C(C(=O)[O-])=C(/C=C/C[N+](C)(C)CC(C)=O)CS[C@H]12)c1nsc(N)n1` [Example 17, 7β-[2-(5-Amino-1,2,4-thiadiazol-3-yl)-(Z)-2-methoxyiminoacetamido]-3-[(E)-3-(2-oxopropyldimethylammonio)-1-propen-1-yl]-3-cephem-4-carboxylate], for which the MIC with Escher. coli NIHJ (setting [1]) amounted to 0.05 µg/mL (≈ 0.0955 µM); in the experiment with Staph. aureus 209-P (setting [2]) it was 0.4 µg/mL (≈ 0.764 µM); with Morg. morganii EP-14 (setting [3]), 0.1 µg/mL (≈ 0.191 µM); with Ser. marcescens ES-75, 0.1 µg/mL (≈ 0.191 µM); in the experiment with Pseud. aeruginosa EP-01 (setting [4]) it was 1.56 µg/mL (≈ 2.98 µM); in the experiment on Kleb Pneumoniae EK-6 (read-out: MIC), 0.05 µg/mL (≈ 0.0955 µM).
As for `CO/N=C(\C(=O)N[C@@H]1C(=O)N2C(C(=O)[O-])=C(/C=C/C[N+](C)(C)CCO)CS[C@H]12)c1nsc(N)n1` [Example 18-A, 7β-[2-(5-Amino-1,2,4-thiadiazol-3-yl)-(Z)-2-methoxyiminoacetamido]-3-[(E)-3-(2-hydroxyethyldimethylammonio)-1-propen-1-yl]-3-cephem-4-carboxylate], the minimum inhibitory concentration (MIC) in the experiment with Escher. coli NIHJ (setting [1]) is ≤ 0.025 µg/mL; in the experiment on Staph. aureus 209-P (setting [2]) it was 0.2 µg/mL (≈ 0.391 µM); in the experiment with Morg. morganii EP-14 (setting [3]), 0.05 µg/mL (≈ 0.0977 µM); with Ser. marcescens ES-75, 0.1 µg/mL (≈ 0.195 µM); in the experiment on Pseud. aeruginosa EP-01 (setting [4]), 0.8 µg/mL (≈ 1.56 µM); in the experiment on Kleb Pneumoniae EK-6 (read-out: MIC), ≤ 0.025 µg/mL.
`CO/N=C(\C(=O)N[C@@H]1C(=O)N2C(C(=O)[O-])=C(/C=C/C[N+](C)(C)Cc3ncon3)CS[C@H]12)c1nsc(N)n1` [Example 21]: the MIC was ≤ 0.025 µg/mL with Escher. coli NIHJ (setting [1]); 0.2 µg/mL (≈ 0.364 µM) with Staph. aureus 209-P (setting [2]); ≤ 0.025 µg/mL in the experiment with Morg. morganii EP-14 (setting [3]); 0.05 µg/mL (≈ 0.091 µM) with Ser. marcescens ES-75; 1.56 µg/mL (≈ 2.84 µM) in the experiment with Pseud. aeruginosa EP-01 (setting [4]); ≤ 0.025 µg/mL in the experiment with Kleb Pneumoniae EK-6 (read-out: MIC).
Regarding `CO/N=C(\C(=O)N[C@@H]1C(=O)N2C(C(=O)[O-])=C(/C=C/C[N+](C)(C)Cc3cnc[nH]3)CS[C@H]12)c1nsc(N)n1` [Example 22], the MIC in the experiment with Escher. coli NIHJ (setting [1]) was found to be 0.05 µg/mL (≈ 0.0913 µM); with Staph. aureus 209-P (setting [2]), 0.2 µg/mL (≈ 0.365 µM); in the experiment with Morg. morganii EP-14 (setting [3]) it was 0.05 µg/mL (≈ 0.0913 µM); in the experiment on Ser. marcescens ES-75, 0.1 µg/mL (≈ 0.183 µM); in the experiment with Pseud. aeruginosa EP-01 (setting [4]), 1.56 µg/mL (≈ 2.85 µM); with Kleb Pneumoniae EK-6 (read-out: MIC), 0.05 µg/mL (≈ 0.0913 µM).
As for `CO/N=C(\C(=O)N[C@@H]1C(=O)N2C(C(=O)[O-])=C(/C=C/C[N+](C)(C)Cc3cscn3)CS[C@H]12)c1nsc(N)n1` [Example 23, 7β-[2-(5-Amino-1,2,4-thiadiazol-3-yl)-(Z)-2-methoxyiminoacetamido]-3-[(E)-3[(thiazol-4-yl)methyldimethylammonio]-1-propen-1-yl]-3-cephem-4-carboxylate], the MIC in the experiment with Escher. coli NIHJ (setting [1]) is ≤ 0.025 µg/mL; in the experiment with Staph. aureus 209-P (setting [2]), 0.2 µg/mL (≈ 0.354 µM); in the experiment with Morg. morganii EP-14 (setting [3]), ≤ 0.025 µg/mL; in the experiment on Ser. marcescens ES-75 it was 0.05 µg/mL (≈ 0.0885 µM); in the experiment with Pseud. aeruginosa EP-01 (setting [4]), 3.13 µg/mL (≈ 5.54 µM); with Kleb Pneumoniae EK-6 (read-out: MIC), ≤ 0.025 µg/mL.
On to `CO/N=C(\C(=O)N[C@@H]1C(=O)N2C(C(=O)[O-])=C(/C=C/C[N+](C)(C)Cc3cc[nH]n3)CS[C@H]12)c1nsc(N)n1` [Example 24, 7β-[2-(5-Amino-1,2,4-thiadiazol-3-yl)-(Z)-2-methoxyiminoacetamido]-3-[(E)-3-[(pyrazol-3-yl)methyldimethylammonio]-1-propen-1-yl]-3-cephem-4-carboxylate], for which the minimum inhibitory concentration (MIC) with Escher. coli NIHJ (setting [1]) is ≤ 0.025 µg/mL; in the experiment with Staph. aureus 209-P (setting [2]), 0.2 µg/mL (≈ 0.365 µM); with Morg. morganii EP-14 (setting [3]) it was 0.05 µg/mL (≈ 0.0913 µM); with Ser. marcescens ES-75 it was 0.1 µg/mL (≈ 0.183 µM); in the experiment with Pseud. aeruginosa EP-01 (setting [4]), 3.13 µg/mL (≈ 5.72 µM); in the experiment on Kleb Pneumoniae EK-6 (read-out: MIC) it was ≤ 0.025 µg/mL.
As to `CO/N=C(\C(=O)N[C@@H]1C(=O)N2C(C(=O)[O-])=C(/C=C/C[N+]3(CC(N)=O)CC[C@@H](O)C3)CS[C@H]12)c1nsc(N)n1` (some centres unmarked) [Example 45-2], the minimal inhibitory concentration (MIC) against Escher. coli NIHJ is 0.05 µg/mL (≈ 0.0882 µM); in the experiment with Staph. aureus 209-P, 0.4 µg/mL (≈ 0.706 µM); with Morg. morganii EP-14 (Morg. morganii EP-14) it was ≤ 0.025 µg/mL; against Pseud. aeruginosa EP-01 (Pseud. aeruginosa EP-01), 0.8 µg/mL (≈ 1.41 µM); against Kleb Pneumoniae EK-6, ≤ 0.025 µg/mL.
